Blank lines part the entries; values can stand above or below the molecule they belong to.
Tests used:
AAGlyB (GTA-L266G/G268A) [1] = target: T1, AAGlyB (GTA-L266G/G268A) (Homo sapiens, UniProt P16442, L266G/G268A); assay: X-ray crystallography ([…] Å); type: binding; settings: ternary complex with HAA; UDP carried over from purification
T1 construct: gene ABO; soluble catalytic domain, N-terminally truncated (forward primer MIN2 encodes MVSLPRMVYPQP; C-terminus ...NP at residue 354), made in E. coli BL21-gold from pCWdeltalac; SP-Sepharose and UDP-hexanolamine-Sepharose; residues 58-354 stated ordered in UDP-HAA crystal
T1 sequence (P16442 64-354 L266G/G268A): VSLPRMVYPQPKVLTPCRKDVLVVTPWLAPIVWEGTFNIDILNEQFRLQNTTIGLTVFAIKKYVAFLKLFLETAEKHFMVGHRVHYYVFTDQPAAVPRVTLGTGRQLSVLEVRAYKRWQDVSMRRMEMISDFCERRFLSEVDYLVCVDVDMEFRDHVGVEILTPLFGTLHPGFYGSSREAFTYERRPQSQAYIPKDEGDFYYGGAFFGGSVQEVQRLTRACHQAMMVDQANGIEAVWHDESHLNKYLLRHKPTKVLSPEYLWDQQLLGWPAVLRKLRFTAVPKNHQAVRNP

AAGlyB (GTA-L266G/G268A) [2] = target: T2, AAGlyB (GTA-L266G/G268A) (Homo sapiens, UniProt P16442, G268A/L266G); assay: radiochemical Sep-Pak assay, Dixon plot; type: biochemical; settings: read-out: 2
T2 construct: gene ABO; soluble catalytic domain, N-terminally truncated (forward primer MIN2 encodes MVSLPRMVYPQP; C-terminus ...NP at residue 354), made in E. coli BL21-gold from pCWdeltalac; SP-Sepharose and UDP-hexanolamine-Sepharose; residues 58-354 stated ordered in UDP-HAA crystal
T2 sequence (P16442 64-354 L266G/G268A): T1 sequence (P16442 64-354 L266G/G268A)
Source text: radiochemical Sep-Pak assay, Dixon plot on AAGlyB (GTA-L266G/G268A)

AAGlyB (GTA-L266G/G268A) [3] = target: T1, AAGlyB (GTA-L266G/G268A); assay: capillary electrophoresis with LIF detection; type: biochemical; settings: labelled compound; co-substrate compound 2 (33.3 μM), CE assay, 20 mM MnCl2, MOPS pH 7.0, 37 °C
Source text: (§1) capillary electrophoresis with LIF detection on AAGlyB (GTA-L266G/G268A)

[4] = substrate: O=c1[nH]c(=O)n([C@@H]2O[C@H](COP(=O)(O)OP(=O)(O)O[C@H]3O[C@H](CO)[C@H](O)[C@H](O)[C@H]3O)[C@@H](O)[C@H]2O)cc1-c1ccccc1; assay: capillary electrophoresis with LIF detection; type: biochemical, Homo sapiens; settings: 50 μM tetramethylrhodamine-labeled HAA, 20 mM MnCl2, 50 mM MOPS pH 7.0, 37 °C
Source text: as §1

Molecule: O=c1ccn([C@@H]2O[C@H](COP(=O)(O)OP(=O)(O)O)[C@@H](O)[C@H]2O)c(=O)[nH]1 [UDP]
X-ray crystallography (1.8 Å) (AAGlyB (GTA-L266G/G268A) [1]): The AAGlyB-UDP-HAA structure shows very well defined electron density

Ki (AAGlyB (GTA-L266G/G268A) [2]): 3 µM
Molecule: O=c1[nH]c(=O)n([C@@H]2O[C@H](COP(=O)(O)OP(=O)(O)O[C@H]3O[C@H](CO)[C@H](O)[C@H](O)[C@H]3O)[C@@H](O)[C@H]2O)cc1-c1ccccc1 [compound 2, UDP-Gal derivative 2]

Km (AAGlyB (GTA-L266G/G268A) [3]): 56 ± 3 µM
Molecule: α-Fucp-(1→2)-β-Galp-O-(CH2)8CONH(CH2)2NH-CO-tetramethylrhodamine

B1: AAGlyB (GTA-L266G/G268A) (Homo sapiens; G268A/L266G) (protein)
chain: T1 sequence (P16442 64-354 L266G/G268A)
notes: soluble catalytic domain, N-terminally truncated (forward primer MIN2 encodes …; C-terminus ...NP at residue 354), made in E. coli BL21-gold from pCWdeltalac; SP-Sepharose and UDP-hexanolamine-Sepharose; residues 58-354 stated ordered in UDP-HAA crystal
Km [4]: 6.5 ± 0.5 µM
kcat [4]: 0.006 ± 0.0008 s⁻¹

Source: PMC3764824, “Base-modified Donor Analogues Reveal Novel Dynamic Features of a Glycosyltransferase” (The Journal of Biological Chemistry, 2013)
